Test results taken from patent US10448639B2, “Fungicidal pyrazoles” (FMC CORPORATION, priority 2009, dated 2019).

How the values were obtained:
Septoria nodorum = assay: Test F: Septoria glume blotch, preventive spray on wheat seedlings, visual disease rating; settings: Septoria glume blotch; 100 = 100% disease control, 0 = no control relative to controls
[1] = system: Puccinia recondita f. sp. tritici; assay: Test H: wheat leaf rust, curative spray on inoculated wheat seedlings, visual disease rating; settings: wheat leaf rust, curative; 100 = 100% disease control, 0 = no control relative to controls
[2] = system: Puccinia recondita f. sp. tritici; assay: Test I: wheat leaf rust, preventive spray on wheat seedlings, visual disease rating; settings: wheat leaf rust, preventive; 100 = 100% disease control, 0 = no control relative to controls
[3] = system: Erysiphe graminis f sp. tritici; assay: Test J: wheat powdery mildew, preventive spray on wheat seedlings, visual disease rating; settings: wheat powdery mildew; 100 = 100% disease control, 0 = no control relative to controls
Alternaria solani = assay: Test C: tomato early blight, preventive spray on tomato seedlings, visual disease rating; settings: tomato early blight; 100 = 100% disease control, 0 = no control relative to controls
Septoria tritici = assay: Test G: wheat leaf blotch, preventive spray on wheat seedlings, visual disease rating; settings: wheat leaf blotch; 100 = 100% disease control, 0 = no control relative to controls
Botrytis cinerea = assay: Test B: tomato Botrytis, preventive spray on tomato seedlings, visual disease rating; settings: tomato Botrytis; 100 = 100% disease control, 0 = no control relative to controls
Description: General protocol for preparing test suspensions for Tests A-J: the test compounds were first dissolved in acetone in an amount equal to 3% of the final volume and then suspended at the desired concentration (in ppm) in acetone and purified water (50/50 mix by volume) containing 250 ppm of the surfactant Trem® 014 (polyhydric alcohol esters). The resulting test suspensions were then used in Tests A-J. Spraying a 200 ppm test suspension to the point of run-off on the test plants was the equivalent of a rate of 500 g/ha. Unless otherwise indicated, the rating values indicate a 200 ppm test suspension was used. (An asterisk “*” next to the rating value indicates a 40 ppm test suspension was used.)
The test suspension was sprayed to the point of run-off on tomato seedlings. The following day the seedlings were inoculated with a spore suspension of Botrytis cinerea (the causal agent of tomato Botrytis) and incubated in saturated atmosphere at 20° C. for 48 h, and then moved to a growth chamber at 24° C. for 3 additional days, after which time visual disease ratings were made.

SMILES | Test F rating (% disease control) (Septoria nodorum) [%] | Test H rating (% disease control) [1] [%] | Test I rating (% disease control) [2] [%] | Test J rating (% disease control) [3] [%] | Test C rating (% disease control) (Alternaria solani) [%] | Test G rating (% disease control) (Septoria tritici) [%] | Test B rating (% disease control) (Botrytis cinerea) [%]
COc1cc(F)c(Nc2c(-c3c(F)cccc3F)c(C)nn2C)c(F)c1 [compound 257] | 0 | 0 | 97 | 98 | 99 | 100 | 100
COc1cc(F)c(-c2c(C)nn(C)c2Oc2ccc(Br)c(C#N)c2)c(F)c1 [compound 258] | 0 | 0 | 68 | 90 | 9 | 89 | 41
COc1cc(F)c(-c2c(C)nn(C)c2Oc2ccc(C)c(C#N)c2)c(F)c1 [compound 259] | 0 | 0 | 86 | 97 | 9 | 100 | 98
Cc1nn(C)c(Oc2ncc(C(F)(F)F)cc2F)c1-c1ccc(F)cc1Br [compound 260] | 0 | 0 | 0 | 0 | 0 | 0 | 0
Cc1nn(C)c(Oc2ncc(C(F)(F)F)cc2Cl)c1-c1ccc(F)cc1Br [compound 261] | 0 | 0 | 0 | 47 | 0 | 0 | 0
Cc1nn(C)c(Nc2c(F)cc(F)cc2F)c1-c1c(F)cccc1C(F)(F)F [compound 262] | 0 | 0 | 68 | 99 | 51 | 0 | 99
COc1cc(F)c(Nc2c(-c3c(F)cccc3C(F)(F)F)c(C)nn2C)c(F)c1 [compound 263] | 0 | 0 | 98 | 100 | 98 | 100 | 100
Cc1nn(C)c(Nc2ncc(F)cc2F)c1-c1c(F)cccc1C(F)(F)F [compound 264] | 0 | 0 | 99 | 98 | 98 | 92 | 100
COc1ccc(-c2c(C)nn(C)c2Nc2ncc(Cl)cc2Cl)c(Cl)c1 [compound 267] | 60 | 0 | 96 | 93 | 79 | 100 | 100
Cc1nn(C)c(Nc2cnc(Cl)nc2)c1-c1ccc(F)cc1Cl [compound 268] | 0 | 0 | 74 | 0 | 93 | 99 | 95
Cc1ncc(Nc2c(-c3ccc(F)cc3Cl)c(C)nn2C)cn1 [compound 269] | 0 | 8 | 0 | 0 | 0 | 67 | 80
Cc1nn(C)c(Nc2cncnc2)c1-c1ccc(F)cc1Cl [compound 270] | 0 | 8 | 0 | 81 | 86 | 91 | 92
Cc1nn(C)c(Oc2c(F)cc(C#N)cc2F)c1-c1ccccc1Cl [compound 271] | 99 | 0 | 99 | 98 | 99 | 100 | 100
Cc1nn(C)c(Oc2c(F)cc(C#N)cc2F)c1-c1ccccc1Br [compound 272] | 99 | 0 | 99 | 99 | 97 | 99 | 100
Cc1nn(C)c(Oc2c(F)cc(C#N)cc2F)c1-c1cccc(Cl)c1Cl [compound 273] | 0 | 0 | 27 | 43 | 0 | 72 | 0
Cc1nn(C)c(Oc2c(F)cc(C#N)cc2F)c1-c1cccc(F)c1F [compound 274] | 0 | 8 | 0 | 69 | 0 | 96 | 8
Cc1nn(C)c(Oc2c(F)cc(C#N)cc2F)c1-c1cc(Cl)ccc1Cl [compound 275] | 0 | 8 | 97 | 99 | 46 | 99 | 97
Cc1nn(C)c(Oc2c(F)cc(C#N)cc2F)c1-c1cc(F)ccc1Cl [compound 276] | 98 | 31 | 100 | 100 | 99 | 100 | 100
COc1ccc(Cl)c(-c2c(C)nn(C)c2Oc2c(F)cc(C#N)cc2F)c1 [compound 277] | 0 | 0 | 96 | 98 | 0 | 100 | 100
COc1ccc(F)c(-c2c(C)nn(C)c2Oc2c(F)cc(C#N)cc2F)c1 [compound 278] | 0 | 0 | 82 | 100 | 0 | 99 | 99
